Measured values from BindingDB's records for doi:10.1016/j.bmc.2010.10.023 (Chugai Pharmaceutical, 2010).

Experiment: Antagonist activity at AR in human bicalutamide-resistant LNCAP cells assessed as inhibition of cell proliferation after 6 days

| SMILES | IC50 [nM] |
| --- | --- |
| CC1(C)C(=O)N(c2ccc(C#N)c(Cl)c2)C(=S)N1c1cccc(S(N)(=O)=O)c1 [3-[3-(3-Chloro-4-cyanophenyl)-5,5-dimethyl-4-oxo-2-thioxoimidazolidin-1-yl]benzenesulfonamide] | 100 |
| CC1(C)C(=O)N(c2ccc(C#N)c(Cl)c2)C(=S)N1CCCS(N)(=O)=O [3-[3-(3-Chloro-4-cyanophenyl)-5,5-dimethyl-4-oxo-2-thioxoimidazolidin-1-yl]propane-1-sulfonamide] | 10 |
| CC1(C)C(=O)N(c2ccc(C#N)c(C(F)(F)F)c2)C(=S)N1c1cccc(S(N)(=O)=O)c1 [3-[3-(4-Cyano-3-trifluoromethylphenyl)-5,5-dimethyl-4-oxo-2-thioxoimidazolidin-1-yl]benzenesulfonamide] | 100 |
| CC1(C)C(=O)N(c2ccc(C#N)c(C(F)(F)F)c2)C(=S)N1c1ccccc1 [4-(3-Phenyl-4,4-dimethyl-5-oxo-2-thioxoimidazolidin-1-yl)-2-trifluoromethylbenzonitrile] | 100 |
| CC1(C)C(=O)N(c2ccc(C#N)c(C(F)(F)F)c2)C(=S)N1c1ccnc(S(N)(=O)=O)c1 [4-[3-(4-Cyano-3-trifluoromethylphenyl)-5,5-dimethyl-4-oxo-2-thioxoimidazolidin-1-yl]pyridine-2-sulfonic acid amide] | 80 |
| CC1(C)C(=O)N(c2ccc(C#N)c(Cl)c2)C(=S)N1c1cncc(S(N)(=O)=O)c1 [5-[3-(3-Chloro-4-cyanophenyl)-5,5-dimethyl-4-oxo-2-thioxoimidazolidin-1-yl]pyridine-3-sulfonic acid amide] | 50 |
| CC1(C)C(=O)N(c2ccc(C#N)c(C(F)(F)F)c2)C(=S)N1c1cncc(S(N)(=O)=O)c1 [5-[3-(4-Cyano-3-trifluoromethylphenyl)-5,5-dimethyl-4-oxo-2-thioxoimidazolidin-1-yl]pyridine-3-sulfonic acid amide] | 30 |
| CC1(C)C(=O)N(c2ccc(C#N)c(Cl)c2)C(=S)N1c1cccc(S(N)(=O)=O)n1 [6-[3-(3-Chloro-4-cyanophenyl)-5,5-dimethyl-4-oxo-2-thioxoimidazolidin-1-yl]pyridine-2-sulfonic acid amide] | 100 |
| CC1(C)C(=O)N(c2ccc(C#N)c(C(F)(F)F)c2)C(=S)N1c1cccc(S(N)(=O)=O)n1 [6-[3-(4-Cyano-3-trifluoromethylphenyl)-5,5-dimethyl-4-oxo-2-thioxoimidazolidin-1-yl]pyridine-2-sulfonic acid amide] | 100 |
